{"source": "patent US20250052744A1", "about": "“Dyes and Uses Thereof” (The University of Liverpool, priority 2021, published 2025)", "format_in_all_cases": "cell-based", "key": {"[1]": {"system": "E. Coli SEC 31", "experiment": "Fluorescent signal intensity of stained bacteria (microscope, ImageJ)", "description": "(§1) Firstly, all different bacterial strains were grown overnight in LB at 37° C. and 200 rpm. The mid-exponential phase cultures of bacterial strains were then diluted to a concentration of 10^5 cells·mL^−1 in LB. SYBR Green I, SYTO 13/9 and DiSC3(5) dyes were prepared by diluting them from their stocks.\n(§2) The three dyes (SYBR Green I, SYTO 13/9 and DiSC3(5)) were then added in the final concentrations of 3 μM—DiSC3(5), 3 μM—SYTO 13/9 and 10× (diluted from the stock 10,000×)—SYBR Green I to the different bacterial strains and the strains incubated […] at 37° C. for 10 minutes in the dark.\n(§3) The bacterial strains were then put on a haemocytometer and visualised under a microscope with fluorescent filters corresponding to individual dyes. Images were taken for all the bacterial strains at the same intensity of the incident laser light and 10-15 images were taken for each of the bacterial strains.\n(§4) The images were then analysed on ImageJ software by first converting the coloured images to monochromatic images, then selecting an area with cells and analysing the plot profile. The intensity of the peaks and background from the image was then recorded.\n(§5) A similar protocol to Example 1 was followed, with the addition of […] of FM 4-64."}, "[2]": {"system": "Enterococcus faecium NCTCT 7171", "experiment": "Fluorescent signal intensity of stained bacteria (microscope, ImageJ)", "description": "as §1, §2, §3, §4, §5"}, "[3]": {"system": "Klebsiella pneumoniae NCTC 9633", "experiment": "Fluorescent signal intensity of stained bacteria (microscope, ImageJ)", "description": "as §1, §2, §3, §4, §5"}, "[4]": {"system": "P. Aeruginosa NCTC 10332", "experiment": "Fluorescent signal intensity of stained bacteria (microscope, ImageJ)", "description": "as §1, §2, §3, §4, §5"}, "[5]": {"system": "P. Mirabilis NCTC 11938", "experiment": "Fluorescent signal intensity of stained bacteria (microscope, ImageJ)", "description": "as §1, §2, §3, §4, §5"}, "[6]": {"system": "S. Aureus NCTC 8532", "experiment": "Fluorescent signal intensity of stained bacteria (microscope, ImageJ)", "description": "as §1, §2, §3, §4, §5"}, "[7]": {"system": "Proteus", "experiment": "Qualitative dye staining on agarose pads (EVOS M7000)", "parameters": "key to Relative fluorescent intensity: Very high: If the cells looked twice as big in the fluorescent channel, it was marked as having “very high” relative fluorescent intensity; High: if the cells looked bigger in the fluorescent channel, it was marked as having “high” relative fluorescent intensity; Medium: If the cells looked almost the same size in the fluorescent channel and the bright field, it was marked as having “medium” relative fluorescent intensity; Low: If the cells looked smaller in the fluorescent channel as compared to the brightfield but still the whole cell was visible, it was marked as having “low” relative fluorescent intensity; Negligible: If only a few traces of a cell was visible in the fluorescent channel, it was marked as having “negligible” relative fluorescent intensity", "conditions": "Table 6 thresholds, DiSC3(5) 3 μM, SYBR Green I 10×, SYTO 13 3 μM, FM4-64 15 μM", "description": "An overnight culture was prepared by inoculating a bacterial colony in approximately 5 ml of Urine and incubating the culture in an orbital shaker at 37° C.\nThe following media and materials were utilised: Cation-adjusted Mueller Hinton broth (MHB); Phosphate Buffered Saline (PBS); Membrane staining dye—FM4-64 (1.5 mM); Live cell staining dye—DiSC3(5) (1 mM); DNA staining dye—SYBR Green (1000×); DNA staining dye—SYTO 13 (0.5 mM); Ultrapure Agarose; Parafilm; Glass slides and coverslips; Scalpel; and EVOS M7000 fluorescent microscope.\nA pre-cut parafilm or a coverslip was used as a guide and 22 mm×22 mm squares cut from parafilm. A square was cut out of the centre of the parafilm (approximately 10 mm×10 mm). The centre of the cut-out was discarded. Two parafilm gaskets were placed onto a cleaned glass slide. The glass slide was then placed on a dry bath set to 56° C. so that the parafilm adhered to the glass slide. The glass slide was then kept on the dry bath. Using a microwave, ultrapure agarose was dissolved in PBS at a concentration of 1.2%. The agarose solution was kept on a dry bath set at 56° C. 60 μl of the agarose solution was pipetted in the centre of the parafilm gaskets. A coverslip was then placed over the gaskets without applying pressure on the coverslip. The slide was then placed on a cool surface and left to solidify for 1-2 minutes. The coverslips were then gently lifted off the agarose pads.\nIn a first Eppendorf, 15 μl of FM4-64 and 6 μl of SYTO 13 was added and in a second Eppendorf 10 μl of SYBR Green and 3 μl of DiSC3(5) was added. Depending on the bacterial growth in urine, an appropriate concentration of the bacterial culture was placed in the two Eppendorfs (final bacterial concentration 10^6 CFU/ml). MHB was added so as to achieve a final volume of 1 ml. Final concentrations of the dyes in the sample was as follows: DiSC3(5): 3 μM; SYBR Green I: 10× (originally supplied as 10,000×); SYTO 13: 3 μM; and FM4-64: 15 μM\n4 μl of the contents of each Eppendorf were deposited on one agarose pad and the cells distributed across the agar surface by tilting the slide. The slide was left to dry for approximately 1 minute. A coverslip was then placed on top of the agarose pad. The slide was placed inside the microscope and incubated at 37° C. for 10 minutes. Using different light filters for each dye, an image of each pad at 40× magnification on an EVOS M7000 fluorescent microscope was captured. Eight images for each agarose pad was recorded (i.e. 8 each for brightfield and 2 fluorescent channels). For each agarose pad, 24 images were recorded. This corresponded to 48 images in total for each bacterial strain (2 agarose pads per strain). Table A below was used to take the images using the correct fluorescent channel and intensity (for imagining on any other instrument, the LED intensity will need to be normalised against the EVOS M7000).\nTo qualitatively calculate the relative fluorescent intensities, cell size was compared between brightfield and the fluorescent channel for a given fluorescent dye. If the cells are very fluorescent, they will appear bigger in the fluorescent channel as compared to the bright field. For our qualitative measurements, if the cells looked bigger in the fluorescent channel, it was marked as having “high” relative fluorescent intensity. If the cells looked twice as big in the fluorescent channel, it was marked as having “very high” relative fluorescent intensity. If the cells looked almost the same size in the fluorescent channel and the bright field, it was marked as having “medium” relative fluorescent intensity. If the cells looked smaller in the fluorescent channel as compared to the brightfield but still the whole cell was visible, it was marked as having “low” relative fluorescent intensity. If only a few traces of a cell was visible in the fluorescent channel, it was marked as having “negligible” relative fluorescent intensity."}, "[8]": {"conditions": "Table 1, 3 μM DiSC3(5), 3 μM SYTO 13/9, 10× SYBR Green I, 37° C. for 10 minutes, background subtracted"}, "[9]": {"conditions": "Table 3, DiSC3(5) 3 uM, SYBR Green 10x, SYTO 13/9 3 uM, FM 4-64 15 uM"}}}
{"smiles": "CCCN1C(=CC=CC=Cc2sc3ccccc3[n+]2CCC)Sc2ccccc21.[I-]", "note": "[DiSC3(5), 3,3′-Dipropylthiadicarbocyanine Iodide]", "values": [{"measurement": "fluorescent signal intensity value, Average", "setting": "[1]; [8]", "result": 62.66}, {"measurement": "fluorescent signal intensity value, Average", "setting": "[1]; [9]", "result": 62.66}, {"measurement": "fluorescent signal intensity value, Average", "setting": "[2]; [8]", "result": 142.28}, {"measurement": "fluorescent signal intensity value, Average", "setting": "[2]; [9]", "result": 142.28}, {"measurement": "fluorescent signal intensity value, Average", "setting": "[3]; [8]", "result": 16.70}, {"measurement": "fluorescent signal intensity value, Average", "setting": "[3]; [9]", "result": 16.70}, {"measurement": "fluorescent signal intensity value, Average", "setting": "[4]; [8]", "result": 0.00}, {"measurement": "fluorescent signal intensity value, Average", "setting": "[4]; [9]", "result": 0.00}, {"measurement": "fluorescent signal intensity value, Average", "setting": "[5]; [8]", "result": 88.50}, {"measurement": "fluorescent signal intensity value, Average", "setting": "[5]; [9]", "result": 88.50}, {"measurement": "fluorescent signal intensity value, Average", "setting": "[6]; [8]", "result": 184.80}, {"measurement": "fluorescent signal intensity value, Average", "setting": "[6]; [9]", "result": 184.80}, {"measurement": "Percentage of cells stained", "setting": "[7]", "result": "Half"}, {"measurement": "Relative fluorescent intensity", "setting": "[7]", "result": "Low-Medium"}]}
{"smiles": "CCN(CC)c1ccc(C=CC=CC=Cc2cc[n+](CCC[N+](CC)(CC)CC)cc2)cc1.[Br-].[Br-]", "note": "[FM 4-64, N-(3-Triethylammoniumpropyl)-4-(6-(4-(Diethylamino) Phenyl) Hexatrienyl) Pyridinium Dibromide]", "values": [{"measurement": "fluorescent signal intensity value, Average", "setting": "[1]; [9]", "result": 56.50}, {"measurement": "fluorescent signal intensity value, Average", "setting": "[2]; [9]", "result": 25.00}, {"measurement": "fluorescent signal intensity value, Average", "setting": "[3]; [9]", "result": 30.00}, {"measurement": "fluorescent signal intensity value, Average", "setting": "[4]; [9]", "result": 10.00}, {"measurement": "fluorescent signal intensity value, Average", "setting": "[5]; [9]", "result": 0.00}, {"measurement": "fluorescent signal intensity value, Average", "setting": "[6]; [9]", "result": 89.00}, {"measurement": "Percentage of cells stained", "setting": "[7]", "result": "Few"}, {"measurement": "Relative fluorescent intensity", "setting": "[7]", "result": "no staining or negligible"}, {"measurement": "Relative fluorescent intensity", "setting": "[7]; listed as FM4-64", "result": "Negligible"}]}
{"smiles": "CCCN(CCCN(C)C)c1cc(/C=C2/Sc3ccccc3N2C)c2ccccc2[n+]1-c1ccccc1", "note": "[SYBR Green I, N′,N′-dimethyl-N-[4-[(E)-(3-methyl-1,3-benzothiazol-2-ylidene)methyl]-1-phenylquinolin-1-ium-2-yl]-N-propylpropane-1,3-diamine]", "values": [{"measurement": "fluorescent signal intensity value, Average", "setting": "[1]; [8]", "result": 104.53}, {"measurement": "fluorescent signal intensity value, Average", "setting": "[1]; [9]", "result": 104.53}, {"measurement": "fluorescent signal intensity value, Average", "setting": "[2]; [8]", "result": 162.27}, {"measurement": "fluorescent signal intensity value, Average", "setting": "[2]; [9]", "result": 162.27}, {"measurement": "fluorescent signal intensity value, Average", "setting": "[3]; [8]", "result": 21.87}, {"measurement": "fluorescent signal intensity value, Average", "setting": "[3]; [9]", "result": 21.87}, {"measurement": "fluorescent signal intensity value, Average", "setting": "[4]; [8]", "result": 123.67}, {"measurement": "fluorescent signal intensity value, Average", "setting": "[4]; [9]", "result": 123.67}, {"measurement": "fluorescent signal intensity value, Average", "setting": "[5]; [8]", "result": 109.85}, {"measurement": "fluorescent signal intensity value, Average", "setting": "[5]; [9]", "result": 109.85}, {"measurement": "fluorescent signal intensity value, Average", "setting": "[6]; [8]", "result": 196.52}, {"measurement": "fluorescent signal intensity value, Average", "setting": "[6]; [9]", "result": 196.52}, {"measurement": "Percentage of cells stained", "setting": "[7]", "result": "Half"}, {"measurement": "Relative fluorescent intensity", "setting": "[7]", "result": "Low"}]}
